Measurements from US8648076B2, “Cysteine protease inhibitors and their therapeutic applications” (Hybrigenics SA, priority 2005, dated 2014).
Where two headings read alike, the source gives them in different places. Values belong to the compound of their own block, whether it stands above or below them.

Tests used:
[1] = test system: PC-3 prostate cancer cells; assay: PC3 cell viability and proliferation assay (MTS); format: cell-based; conditions: PC3 cells, 72 hours incubation, MTS, mean of 3 independent experiments, read-out: PC3 D3 GI50
[2] = test system: HCT116 colon cancer cells; assay: HCT116 cell viability and proliferation assay (MTS); format: cell-based; conditions: HCT116 cells, 72 hours incubation, MTS, mean of 3 independent experiments, read-out: HCT116 D3 GI50
USP7 = molecular target: T1, USP7 (Homo sapiens, UniProt Q93009); assay: USP7 activity assay; format: biochemical; conditions: 400 nM Ub-AMC, 152 pM enzyme, 30 min pre-incubation at 25° C., 60 min at 37° C.; sigmoidal fit; read-out: USP 7 (inhibition of cysteine protease activity)
T1 construct: His tag (from pFastBac-HT vector) (N); made in house; host or cells: insect cells (Sf9 or High Five), baculovirus
T1 sequence (Q93009 whole entry): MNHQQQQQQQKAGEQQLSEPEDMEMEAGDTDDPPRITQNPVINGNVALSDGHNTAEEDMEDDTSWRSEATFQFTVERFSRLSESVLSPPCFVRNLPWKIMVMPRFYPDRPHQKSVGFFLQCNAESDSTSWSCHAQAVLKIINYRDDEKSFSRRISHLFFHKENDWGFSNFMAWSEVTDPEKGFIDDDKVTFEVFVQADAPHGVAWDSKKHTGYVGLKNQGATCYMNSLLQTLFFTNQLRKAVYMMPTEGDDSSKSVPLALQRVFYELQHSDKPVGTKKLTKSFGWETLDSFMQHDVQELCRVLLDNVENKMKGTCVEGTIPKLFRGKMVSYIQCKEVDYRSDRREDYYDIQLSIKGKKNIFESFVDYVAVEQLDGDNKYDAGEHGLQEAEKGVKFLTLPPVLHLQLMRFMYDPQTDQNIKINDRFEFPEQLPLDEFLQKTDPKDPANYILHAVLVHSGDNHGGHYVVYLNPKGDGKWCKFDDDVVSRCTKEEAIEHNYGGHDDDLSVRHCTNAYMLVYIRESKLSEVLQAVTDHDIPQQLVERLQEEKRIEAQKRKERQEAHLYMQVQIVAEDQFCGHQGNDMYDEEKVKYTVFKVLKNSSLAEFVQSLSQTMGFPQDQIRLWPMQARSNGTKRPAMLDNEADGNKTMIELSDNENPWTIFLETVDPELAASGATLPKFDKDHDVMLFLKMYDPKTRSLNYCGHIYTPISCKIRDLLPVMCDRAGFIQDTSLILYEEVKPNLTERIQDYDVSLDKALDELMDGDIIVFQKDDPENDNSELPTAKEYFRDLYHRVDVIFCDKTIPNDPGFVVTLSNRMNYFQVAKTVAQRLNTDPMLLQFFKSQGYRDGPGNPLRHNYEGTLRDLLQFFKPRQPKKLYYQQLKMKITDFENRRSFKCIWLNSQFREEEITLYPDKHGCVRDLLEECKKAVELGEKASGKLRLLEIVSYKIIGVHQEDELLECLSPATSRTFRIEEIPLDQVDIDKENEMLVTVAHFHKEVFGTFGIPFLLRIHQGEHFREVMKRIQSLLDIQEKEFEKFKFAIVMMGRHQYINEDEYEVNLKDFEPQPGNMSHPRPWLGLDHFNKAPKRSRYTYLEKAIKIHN

Uch-L3 = molecular target: T2, Uch-L3 (Homo sapiens, UniProt P15374); assay: UCH-L3 activity assay; format: biochemical; conditions: 400 nM Ub-AMC, 13 pM enzyme, 30 min pre-incubation at 25° C., 60 min at 37° C.; sigmoidal fit; AF: Autofluorescent; read-out: Uch-L3 (inhibition of cysteine protease activity)
T2 sequence (P15374 1-230): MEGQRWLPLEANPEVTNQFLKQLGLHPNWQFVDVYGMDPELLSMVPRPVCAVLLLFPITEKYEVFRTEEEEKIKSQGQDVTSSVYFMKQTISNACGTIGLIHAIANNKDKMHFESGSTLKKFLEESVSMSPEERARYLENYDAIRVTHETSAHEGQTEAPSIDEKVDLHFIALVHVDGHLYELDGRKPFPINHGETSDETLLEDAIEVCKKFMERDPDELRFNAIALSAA
Procedure: Bovine Serum Albumin 0.05 mg·ml^−1 pH7.6). Compounds stocks (100 mM) were stored at −20° C. in DMSO. […] Reactions were performed as duplicates in Black LJL 96 well plates (HE microplates; Molecular Devices; 20 μl final reaction volume). The substrate concentration for Uch-L3 was 400 nM Ub-AMC (Boston Biochem). The concentration of the enzyme (Uch-L3) in specificity assays was 13 pM. The concentrations were determined in order to perform specificity assays under initial velocities at fixed substrate concentration. Compounds were pre-incubated with enzymes for 30 minutes at 25° C. Reactions were initiated by addition of substrate to the plates containing the enzymes (+/−compounds) diluted in assay buffer. Reactions were incubated for 60 minutes at 37° C. Reactions were stopped by adding acetic acid (100 mM final). Readings were performed on a Pherastar Fluorescent Reader (BMG). δ Emission 380 nm; δ Excitation=460 nm. Data (mean values+/− standard deviation) were analyzed as % of control (no compound) and plotted as percentage versus the Log of the compound concentration using GraphPad (Prism). Data were fitted to a sigmoidal model (variable slope).

USP8 = molecular target: T3, USP8 (Homo sapiens, UniProt P40818); assay: USP8 activity assay; format: biochemical; conditions: 400 nM Ub-AMC, pH8.8, 30 min pre-incubation at 25° C., 60 min at 37° C.; sigmoidal fit; AF: Autofluorescent; read-out: USP 8 (inhibition of cysteine protease activity)
T3 sequence (P40818 1-1118): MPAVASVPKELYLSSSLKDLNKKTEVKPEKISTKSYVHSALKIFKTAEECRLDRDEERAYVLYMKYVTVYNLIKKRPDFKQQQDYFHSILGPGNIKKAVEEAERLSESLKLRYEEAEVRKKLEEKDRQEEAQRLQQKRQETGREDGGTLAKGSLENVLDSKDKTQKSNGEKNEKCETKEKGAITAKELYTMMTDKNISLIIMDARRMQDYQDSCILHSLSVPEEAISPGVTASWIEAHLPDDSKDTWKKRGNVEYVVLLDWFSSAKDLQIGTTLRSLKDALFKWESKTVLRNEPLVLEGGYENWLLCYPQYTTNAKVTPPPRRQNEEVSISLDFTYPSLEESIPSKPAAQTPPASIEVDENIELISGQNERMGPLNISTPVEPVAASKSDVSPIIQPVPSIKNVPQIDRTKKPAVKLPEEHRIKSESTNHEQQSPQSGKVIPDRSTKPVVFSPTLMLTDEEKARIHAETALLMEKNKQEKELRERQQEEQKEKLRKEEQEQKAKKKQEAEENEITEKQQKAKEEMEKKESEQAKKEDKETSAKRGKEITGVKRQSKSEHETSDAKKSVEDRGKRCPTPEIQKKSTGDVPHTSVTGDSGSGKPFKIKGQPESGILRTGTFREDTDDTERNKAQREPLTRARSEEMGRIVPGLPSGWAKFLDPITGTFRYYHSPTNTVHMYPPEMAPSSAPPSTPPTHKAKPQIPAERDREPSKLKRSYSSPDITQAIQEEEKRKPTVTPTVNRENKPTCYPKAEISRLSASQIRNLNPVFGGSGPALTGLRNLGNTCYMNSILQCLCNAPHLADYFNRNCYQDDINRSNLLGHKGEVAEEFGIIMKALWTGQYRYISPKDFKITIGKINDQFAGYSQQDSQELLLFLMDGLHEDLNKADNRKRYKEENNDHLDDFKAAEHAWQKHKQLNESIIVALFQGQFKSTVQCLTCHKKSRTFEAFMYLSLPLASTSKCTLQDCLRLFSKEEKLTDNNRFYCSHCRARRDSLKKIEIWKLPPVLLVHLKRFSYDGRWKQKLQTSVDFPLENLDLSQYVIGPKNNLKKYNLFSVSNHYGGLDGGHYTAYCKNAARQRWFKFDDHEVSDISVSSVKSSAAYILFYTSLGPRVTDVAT

SMILES: COc1nc2c(nc1C#N)C(O)c1ccccc1-2 (stereo not shown) [Example 2, 9-hydroxy-3-methoxy-9H-indeno[1,2-b]pyrazine-2-carbonitrile]
GI50 ([1]; Homo sapiens, PC-3, 72 h): > 10000 nM | GI50 ([2]; Homo sapiens, HCT-116): > 10000 nM

SMILES: CON=C1c2cc(Cl)ccc2-c2nc(C#N)c(C#N)nc21 [Example 24a, 7-Chloro-9-methoxyimino-9H-indeno[1,2-b]pyrazine-2,3-dicarbonitrile]
GI50 ([1]; Homo sapiens, PC-3): 390 nM | GI50 ([2]; Homo sapiens, HCT-116): 500 nM

SMILES: N#Cc1nc2c(nc1C(N)=O)-c1ccccc1/C2=N\O [Example 33, 2-cyano-9-[hydroxyimino]-9H-indeno[1,2-b]pyrazine-3-carboxylic acid amide]
GI50 [1]: 1200 nM | IC50 (USP7): 13000 nM | GI50 [2]: 1600 nM | IC50 (Uch-L3): 596 nM | IC50 (USP8): 733 nM

More lines, now with the values ahead:

GI50 ([1]; Homo sapiens, PC-3): 620 nM | GI50 ([2]; Homo sapiens, HCT-116): 940 nM
SMILES: C=CCON=C1c2cc(Cl)ccc2-c2nc(C#N)c(C#N)nc21 [Example 24b, 9-Allyloxyimino-7-chloro-9H-indeno[1,2-b]pyrazine-2,3-dicarbonitrile]

GI50 ([1]; Homo sapiens, PC-3): 1400 nM | GI50 ([2]; Homo sapiens, HCT-116): 190 nM
SMILES: N#Cc1nc2c(nc1C#N)-c1cc(Cl)ccc1C2=O [Example 25, 6-Chloro-9-oxo-9H-indeno[1,2-b]pyrazine-2,3-dicarbonitrile]
